Data from PMC8848508 (ACS Central Science, 2022).
“Also recorded” adds a separate entry of the source. Where a SMILES comes first, the peptide text is derived from it. The star is where a group is joined. Cbz = O=C(OCc1ccccc1)*

What follows are molecules tested against SARS-CoV-2 M^Pro (Severe acute respiratory syndrome coronavirus 2, UniProt P0DTD1, Q3569G).
Assay type: cell-based

Row | Structure (SMILES) | cellular inhibition of M^Pro (in words)
1 | CC(C)C[C@@H](C=O)NC(=O)[C@H](CC(C)C)NC(=O)[C@H](CC(C)C)NC(=O)OCc1ccccc1 [MG-132] (Cbz-Leu-Leu-Leu-aldehyde) | close to undetectable
2 | CC(C)COCC(CN(Cc1ccccc1)c1ccccc1)N1CCCC1 (stereo not drawn) [bepridil] | relatively weak to undetectable; also recorded: very weak inhibition; also recorded: close to undetectable
3 | CC(C)(C)NC(=O)N[C@H](C(=O)N1C[C@H]2[C@@H]([C@H]1C(=O)NC(CC1CCC1)C(=O)C(N)=O)C2(C)C)C(C)(C)C (stereo partly drawn) [boceprevir] | close to undetectable; also recorded: very weak
4 | CCCC[C@@H](C=O)NC(=O)[C@H](CC(C)C)NC(=O)OCc1ccccc1 [calpeptin] | close to undetectable
5 | CCCCCCNC(=O)n1cc(F)c(=O)[nH]c1=O [carmofur] | undetectable
6 | CCN(CC)CCCC(C)Nc1ccnc2cc(Cl)ccc12 (stereo not drawn) [chloroquine] | relatively weak to undetectable; also recorded: close to undetectable
7 | O=c1c2ccccc2[se]n1-c1ccccc1 [ebselen] | relatively weak to undetectable
8 | CCN(CCO)CCCC(C)Nc1ccnc2cc(Cl)ccc12 (stereo not drawn) [hydroxychloroquine] | relatively weak to undetectable; also recorded: close to undetectable
9 | CCC[C@H](NC(=O)[C@@H]1[C@H]2CCC[C@H]2CN1C(=O)[C@@H](NC(=O)[C@@H](NC(=O)c1cnccn1)C1CCCCC1)C(C)(C)C)C(=O)C(=O)NC1CC1 [telaprevir] | close to undetectable
